Test results from PubChem BioAssay (NCI).
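Values below derive from 48-hour exposures of cells grown in 96-well plates, with endpoints linearly interpolated between the two concentrations bracketing the appropriate inhibition level. GI50 marks 50% less growth. The concentration for full growth arrest is given as TGI.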

What was measured:
Assay in all cases: DTP human tumour cell line panel, 48 h
[1] = test system: HCC-2998 colon
[2] = test system: LOX IMVI melanoma
[3] = test system: PC-3 prostate
[4] = test system: T-47D breast
[5] = test system: NCI-H460 lung
[6] = test system: SNB-19 CNS
[7] = test system: HT29 colon
[8] = test system: SK-OV-3 ovarian
[9] = test system: KM12 colon
[10] = test system: M14 melanoma
[11] = test system: K-562 leukemia
[12] = test system: MALME-3M melanoma
[13] = test system: SK-MEL-2 melanoma
[14] = test system: HOP-92 NSCLC

| SMILES | TGI [1] [µM] | TGI [2] [µM] | TGI [3] [µM] | TGI [4] [µM] | TGI [5] [µM] | TGI [6] [µM] | TGI [7] [µM] | TGI [8] [µM] | TGI [9] [µM] | TGI [10] [µM] | TGI [11] [µM] | TGI [12] [µM] | TGI [13] [µM] | TGI [14] [µM] | GI50 [12] [µM] |
| --- | --- | --- | --- | --- | --- | --- | --- | --- | --- | --- | --- | --- | --- | --- | --- |
| Cc1nc(Nc2ccc(F)cc2)c2sc(=S)n(-c3ccc(F)cc3)c2n1 | 24.7 | 17 | 35.6 | 19.8 | 28.8 | 27.8 | 19.9 | 40.2 | 28.2 | 15.5 | > 100 | 28.8 | 28.6 | – | – |
| Nc1ccc(C2NC(=O)Cc3c2ccc2ccccc32)cc1 (centres undefined) | > 100 | > 100 | > 100 | > 100 | > 100 | > 100 | > 100 | > 100 | > 100 | > 100 | > 100 | > 100 | > 100 | > 100 | – |
| CCCCNc1c(CN)cnc2cc(Cl)ccc12 | 9.63 | 29.9 | 43.1 | 44.3 | 25.8 | 51 | 37 | 31.6 | 36.7 | 36.6 | 32.1 | 34 | 33.3 | 35.1 | – |
| Nc1ccc2nc3ccc(N)cc3[n+](-c3ccccc3)c2c1 | > 100 | 75.9 | > 100 | > 100 | > 100 | > 100 | > 100 | > 100 | > 100 | > 100 | > 100 | 74.7 | > 100 | > 100 | – |
| O=C(O)CSCC(=O)O | – | > 100 | > 100 | – | > 100 | > 100 | > 100 | – | > 100 | > 100 | > 100 | > 100 | > 100 | > 100 | – |
| c1ccc(C(c2ccccc2)[P+](c2ccccc2)(c2ccccc2)c2ccccc2)cc1 | 11.7 | 1.52 | – | – | 11.5 | 10 | 6.73 | 2.68 | 2.7 | – | 10.1 | 14.7 | 1.25 | 2.79 | – |
| CC(=O)Oc1ccc2c(C)cc(=O)oc2c1 | > 100 | > 100 | > 100 | > 100 | > 100 | > 100 | > 100 | > 100 | > 100 | > 100 | > 100 | > 100 | > 100 | > 100 | – |
| Cc1ccc2cc3c(ccc4ccccc43)c3c2c1CC3 | > 100 | > 100 | > 100 | > 100 | > 100 | > 100 | > 100 | > 100 | > 100 | > 100 | > 100 | > 100 | > 100 | > 100 | > 100 |
| COc1ccc2oc(=O)cc(C)c2c1 | > 100 | > 100 | > 100 | > 100 | > 100 | > 100 | > 100 | – | > 100 | > 100 | > 100 | > 100 | > 100 | > 100 | – |
